Experimental data taken from patent publication US11655468B2, “Methods and compositions of chemically modified phage libraries” (priority 2018, dated 2023).
“Also recorded” adds a separate entry of the source. Read-outs that look alike come from different tables or passages of the source. Non-standard residues stand in square brackets, D forms with d. Residues, ends and D or L forms follow the SMILES beside them. *: point of attachment. X2 = O=C1OC2(c3ccc(C(=O)*)cc31)c1cc(Br)c(O)c(Br)c1Oc1c2cc(Br)c(O)c1Br; 5FAM = O=C1OC2(c3ccc(O)cc3Oc3cc(O)ccc32)c2ccc(C(=O)*)cc21; X1 = CC(=O)c1ccc(OCCCNC(=O)C*)cc1B(O)O; Dap = NC[C@H](N)C(=O)O

How the values were obtained:
[1] = test system: S. aureus; experiment: Flow cytometry analysis of S. aureus staining by FAM-labeled peptides; type: cell-based, S. aureus (ATCC 6538); details: for S. aureus staining of control peptides: 1 μM peptide, 1 mg/mL BSA (FIG. 2C)
Protocol: (§1) Each bacterial strain was grown to an OD600˜0.5, washed and diluted with PBS (pH 7.4). The cells (˜1×10^7 cfu/mL) were incubated with various concentrations of FAM-labeled peptide with or without BSA in PBS. After incubation for 1 hour, samples were subjected to cytometric analysis. Data obtained was analyzed via BD FACSDiva software and median fluorescent values were computed from the generated histograms. All flow cytometry experiments were repeated and generated consistent results (see FIG. 14).

[2] = test system: S. aureus; experiment: Fluorescence microscopy of S. aureus staining by TAMRA-labeled peptides; type: cell-based, S. aureus (ATCC 6538)
Protocol: (§2) Each bacterial strain was grown to an OD600˜1.0, washed and diluted with PBS (pH 7.4). The cells (˜1×10^9 cfu/mL) were incubated with various concentrations of TAMRA-labeled peptide with or without BSA in PBS for 1 hour. The same microscopy procedure described was implemented using filter set 20 HE (excitation: BP 546/12, emission: BP 607/80) suitable for detection of TAMRA fluorescence and images were processed consistently using ImageJ software.

[3] = test system: methicillin-resistant strain of S. aureus (ATCC 43300); experiment: Fluorescence microscopy of MRSA staining by TAMRA-labeled peptide; type: cell-based; details: 2 μM (FIG. 17)
Protocol: as §2

[4] = test system: Escherichia coli; experiment: Flow cytometry and fluorescence microscopy of E. coli staining; type: cell-based
Protocol: as §1, §2

[5] = test system: Bacillus subtilis; experiment: Flow cytometry and fluorescence microscopy of B. subtilis staining; type: cell-based; details: up to 10 μM peptide; flow cytometry with 1 mg/mL BSA and microscopy
Protocol: as §1, §2

[6] = molecular target: BSA (Bos taurus, UniProt P02769); experiment: Fluorescence anisotropy protein binding (BSA); set-up: species or system bovine; details: 500 nM peptide, PBS pH 7.4, 1 hour, high protein concentrations
Protocol: (§3) (A) Flow cytometry comparison of HSA and BSA in enhancing KAM5 binding to S. aureus. (B) Assessing protein binding of KAM5 using fluorescence anisotropy, for which various concentrations of BSA or HSA were delivered to a 96-well plate (Corning 3603) in PBS (pH 7.4). Peptide was added at a final concentration of 500 nM and incubated for 1 hour. Anisotropy values were measured (Ex: 495 nm, Em: 532 nm) and plotted as an average of three trials with standard deviations. Fluorescein was used as a negative control. The results clearly show binding of KAM5 to these serum proteins.

[7] = molecular target: HSA (Homo sapiens, UniProt P02768); experiment: Fluorescence anisotropy protein binding (HSA); details: 500 nM peptide, PBS pH 7.4, 1 hour, high protein concentrations
Protocol: as §3

[8] = test system: S. aureus; type: cell-based, S. aureus (ATCC 6538); details: for S. aureus cell death by controls: 1 μM and 2 μM, photoirradiation
Protocol: (§4) Each bacterial strain was grown to an OD600˜0.7, washed and diluted with PBS (pH 7.4). The cells (˜1×10^8 cfu/mL) were incubated with eosin-conjugated peptides and various controls for 15 minutes. Half of the bacterial suspension was removed and placed in a 96-well plate (Corning 3595). The well was subjected to photoirradiation on the Zeiss microscope using the 20× objective and fluorescein filter to emit blue light for 15 minutes. Cells were diluted in LB media, spread on LB agar plates and incubated overnight at 37° C. The A. baumannii (LOS−) strain was spread on LB agar (+10 μg/mL polymyxin b) and incubated for 24 hours. The amount of cell killing was calculated by comparing the amount of colonies of treated bacteria to an untreated PBS control. All experiments were repeated and the average cell killing of two trials was plotted.

[9] = test system: MRSA; experiment: Photoinactivation of bacteria, MRSA; type: cell-based, S. aureus (ATCC 43300); details: same experimental conditions, photoirradiation (FIG. 19)
Protocol: as §4

[10] = test system: B. subtilis; experiment: Photoinactivation of bacteria, B. subtilis; type: cell-based; details: 2 μM peptide followed by photoirradiation
Protocol: as §4

[11] = test system: E. coli; experiment: Photoinactivation of bacteria, E. coli; type: cell-based; details: 2 μM peptide followed by photoirradiation
Protocol: as §4

[12] = test system: HEK293T cells; details: MTT, 24 hrs, with or without photoirradiation
Protocol: HEK293T cells were grown in complete DMEM (containing 10% FBS, 2 mM glutamine and 1% Penicillin/Streptomycin) to about 80% confluency in a 150 mm dish. Cells were removed from the plate with 0.25% trypsin protease solution (containing EDTA) at 37° C. for 5 minutes and pelleted (3,500 rpm, 5 minutes). Cells were diluted in DMEM, distributed to a 96-well plate (Corning 3595) at 30,000 cells/well (100 μL/well) and incubated for 24 hours to allow for cell adherence. 1 μL of 100× DMSO solutions were added to each well and incubations/photoirradiation were performed as described above. After 24 hours, the supernatant culture medium was carefully removed and the cells were incubated with 100 μL MTT (0.5 mg/mL in RPMI) for 4 hours followed by the addition of 10% SDS in 0.01 M HCl (100 μL) and incubation overnight.
(§5) All incubations were performed at 37° C. and 5% CO2. Absorbance readings were measured at 570 nm and cell viability was normalized to the DMSO control as an average of three trials for non-irradiated samples and an average of two trials for photoirradiated samples with standard deviations.

[13] = test system: Jurkat cells; details: MTT, 24 hrs, with or without photoirradiation
Protocol: Jurkat cells were cultured in RPMI 1640 (containing 10% FBS, 2 mM glutamine, 1% Penicillin/Streptomycin) and maintained at 5×10^5 cells/mL. Cells were diluted in RPMI and distributed to a 96-well plate (Corning 3595) at 50,000 cells/well (200 μL/well). […] A positive control for viability of DMSO treated cells along with a positive control for cytotoxicity of camptothecin at 50 μM (5 mM DMSO stock) were included. For photoirradiation, the cells were incubated with the compound of interest for 15 minutes, each well was irradiated for 15 minutes (see photoinactivation protocol-paragraph 0053) and the plate was returned to the incubator for the remainder of the 24 hour incubation. Cells were centrifuged for 5 minutes (180 rcf) and the supernatant culture medium was carefully removed. 100 μL of 3-(4,5-dimethylthiazol-2-yl)-2,5-diphenyltetrazolium bromide (MTT, 0.5 mg/mL in RPMI) was added to each well and incubated for 4 hours followed by the addition of 10% SDS in 0.01 M HCl (100 μL) and incubation overnight.
as §5

[14] = test system: A. baumannii (LOS−); experiment: Flow cytometry analysis of A. baumannii (LOS−) staining; type: cell-based, A. baumannii (AB5075 LOS−); details: for binding of negative controls to A. baumannii (LOS−) compared with KAM8: 1 μM, 1 mg/mL BSA (FIG. 21B)
Protocol: as §1

[15] = test system: A. baumannii (LOS−); experiment: Fluorescence microscopy of A. baumannii (LOS−) staining; type: cell-based, A. baumannii (AB5075 LOS−); details: TAMRA labeled peptide, 2 μM
Protocol: as §2

[16] = test system: wild type A. baumannii (LOS+); experiment: Fluorescence microscopy and flow cytometry of wild type A. baumannii (LOS+) staining; type: cell-based, A. baumannii (AB5075); details: microscopy, same conditions as LOS− strain (legend FIG. 5B: 10 μM for LOS+)
Protocol: as §1, §2

[17] = test system: LOS− A. baumannii; experiment: Photoinactivation of bacteria, A. baumannii (LOS−); type: cell-based, A. baumannii (AB5075 LOS−); details: for A. baumannii (LOS−) cell death by controls: at these concentrations, photoirradiation (FIG. 5C)
Protocol: as §4

[18] = Aggregation of peptide in flow cytometry samples; type: physicochemical; details: concentrations higher than 3 μM
[19] = test system: wild-type (LOS+) A. baumannii; experiment: Photoinactivation of bacteria, A. baumannii (LOS+); type: cell-based, A. baumannii (AB5075); details: same conditions, 2 μM, photoirradiation (FIG. 5D)
Protocol: as §4

HSA, sequence (P02768 25-609): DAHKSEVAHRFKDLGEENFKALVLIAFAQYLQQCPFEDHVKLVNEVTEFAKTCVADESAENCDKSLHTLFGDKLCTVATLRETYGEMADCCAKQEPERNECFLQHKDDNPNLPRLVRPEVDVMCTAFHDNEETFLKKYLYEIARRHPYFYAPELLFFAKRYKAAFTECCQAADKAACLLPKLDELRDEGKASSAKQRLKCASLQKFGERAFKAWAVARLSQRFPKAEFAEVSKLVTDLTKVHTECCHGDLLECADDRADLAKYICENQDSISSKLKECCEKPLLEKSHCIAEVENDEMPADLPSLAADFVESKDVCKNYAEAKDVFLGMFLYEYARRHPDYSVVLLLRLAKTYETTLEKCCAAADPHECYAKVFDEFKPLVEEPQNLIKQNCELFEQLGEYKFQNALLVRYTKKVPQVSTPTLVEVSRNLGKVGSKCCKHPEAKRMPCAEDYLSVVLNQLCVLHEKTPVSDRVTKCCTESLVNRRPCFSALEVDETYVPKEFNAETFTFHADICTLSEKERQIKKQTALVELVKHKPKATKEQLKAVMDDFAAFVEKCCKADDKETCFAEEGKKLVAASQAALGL

CC(=O)c1ccc(OCCCNC(=O)CSC[C@H](NC(=O)[C@H](C)N)C(=O)N[C@H](C(=O)N[C@@H](CO)C(=O)N2CCC[C@H]2C(=O)N[C@@H](CCCNC(=N)N)C(=O)N[C@@H](CO)C(=O)N[C@@H](Cc2c[nH]cn2)C(=O)N[C@@H](CCC(=O)O)C(=O)N[C@@H](CSCC(=O)NCCCOc2ccc(C(C)=O)c(B(O)O)c2)C(=O)NCC(=O)NCC(=O)NCC(=O)N[C@@H](CNC(=O)c2ccc3c(c2)C(=O)OC32c3ccc(O)cc3Oc3cc(O)ccc32)C(N)=O)C(C)C)cc1B(O)O [KAM5, ACmVSPRSHECmGGGDap*] (H-AC(X1)VSPRSHEC(X1)GGG[Dap](5FAM)-NH2; N-terminus assumed)
potency for labeling S. aureus cells compared with KAM14-17 ([1]; flow cytometry (FIG. 18)): superior potency
S. aureus binding potency compared with Hlys-AB1 ([1]; flow cytometry, 1 mg/mL BSA (FIG. 15)): much greater than that of Hlys-AB1
effect of BSA addition on S. aureus staining ([2]; 2 μM peptide, BSA up to 10 mg/mL): did not inhibit
fluorescence staining of S. aureus cells ([2]; TAMRA labeled peptide, 2 μM): strong fluorescence staining
staining of methicillin-resistant S. aureus compared with strain used in phage display [3]: equally potent staining
staining of E. coli ([4]; up to 10 μM peptide, flow cytometry with 1 mg/mL BSA and microscopy): negligible staining
staining of B. subtilis [5]: negligible staining
binding to BSA [6]: did show binding
binding to HSA [7]: did show binding
S. aureus cell death by controls [8]: did not elicit cell death

CC(=O)c1ccc(OCCCNC(=O)CSC[C@H](NC(=O)[C@H](C)N)C(=O)N[C@H](C(=O)N[C@@H](CO)C(=O)N2CCC[C@H]2C(=O)N[C@@H](CCCNC(=N)N)C(=O)N[C@@H](CO)C(=O)N[C@@H](Cc2c[nH]cn2)C(=O)N[C@@H](CCC(=O)O)C(=O)N[C@@H](CSCC(=O)NCCCOc2ccc(C(C)=O)c(B(O)O)c2)C(=O)NCC(=O)NCC(=O)NCC(=O)N[C@@H](CNC(=O)c2ccc3c(c2)C(=O)OC32c3cc(Br)c(O)c(Br)c3Oc3c2cc(Br)c(O)c3Br)C(N)=O)C(C)C)cc1B(O)O [KAM5-Eosin, ACmVSPRSHECmGGGDap*] (H-AC(X1)VSPRSHEC(X1)GGG[Dap](X2)-NH2; N-terminus assumed)
cell killing of S. aureus ([8]; 1 μM): 74%
cell killing of S. aureus ([8]; 2 μM): 92%
cell killing of MRSA compared with S. aureus strain used in selection [9]: comparable percentage of cell killing; also recorded: comparable potency
cell death of B. subtilis [10]: no significant cell death
cell death of E. coli [11]: no significant cell death
mammalian cell toxicity, HEK 293T cells [12]: no mammalian cell toxicity
mammalian cell toxicity, Jurkat cells [13]: no mammalian cell toxicity

CC(=O)c1ccc(OCCCNC(=O)CSC[C@H](NC(=O)[C@H](C)N)C(=O)N[C@H](C(=O)N[C@@H](CC(C)C)C(=O)N2CCC[C@H]2C(=O)N[C@@H](CC(N)=O)C(=O)NCC(=O)N2CCC[C@H]2C(=O)N[C@@H](CCCNC(=N)N)C(=O)N[C@@H](CSCC(=O)NCCCOc2ccc(C(C)=O)c(B(O)O)c2)C(=O)NCC(=O)NCC(=O)NCC(=O)N[C@@H](CNC(=O)c2ccc3c(c2)C(=O)OC32c3ccc(O)cc3Oc3cc(O)ccc32)C(N)=O)[C@@H](C)O)cc1B(O)O [KAM8, ACmTLPNGPRCmGGGDap*] (H-AC(X1)TLPNGPRC(X1)GGG[Dap](5FAM)-NH2; N-terminus assumed)
binding to S. aureus ([2]; TAMRA labeled peptide, 2 μM, 1 mg/mL BSA (FIG. 22)): no binding
binding to E. coli ([4]; microscopy, TAMRA labeled peptide, 2 μM, 1 mg/mL BSA (FIG. 22)): no binding
effect of BSA on binding to A. baumannii (LOS−) ([14]; 1 mg/mL BSA): enhanced bacterial staining
fluorescence staining of LOS− A. baumannii [15]: bright fluorescence staining
fluorescence staining of wild type A. baumannii (LOS+) [16]: little fluorescence staining
A. baumannii (LOS−) cell death by controls [17]: did not elicit A. baumannii cell death

O=C1OC2(c3ccccc31)c1cc(Br)c(O)c(Br)c1Oc1c2cc(Br)c(O)c1Br [eosin, reference compound]
S. aureus cell death by controls [8]: did not elicit cell death
A. baumannii (LOS−) cell death by controls [17]: did not elicit A. baumannii cell death

ACAKIFTGCCGGGDap* [KAM14]
aggregation [18]: aggregation at higher concentrations

ACTLPNGPRCGGGDap* [KAM8-Cyclic]
binding of negative controls to A. baumannii (LOS−) compared with KAM8 [14]: much reduced binding

ACVSPRSHECGGGDap* [KAM5-Cyclic]
S. aureus staining of control peptides ([1]; flow cytometry): little S. aureus staining

ACmGPTAKYICmGGGDap* [KAM6]
S. aureus staining of control peptides ([1]; flow cytometry): no bacterial staining
binding of negative controls to A. baumannii (LOS−) compared with KAM8 [14]: much reduced binding

ACmTLPNGPRCmGGGDap* [KAM8-Eosin]
cell killing of LOS− A. baumannii ([17]; 15 min light): > 90%
killing of wild-type (LOS+) A. baumannii [19]: little killing
